Experimental data as given in US9416126B2, “Compounds inhibiting leucine-rich repeat kinase enzyme activity” (Merck Sharp & Dohme Corp., priority 2013, dated 2016).

Target: LRRK2(G2019S mutation, GST-LRRK2(amino acids 970-2527)) (Homo sapiens (Human), UniProt Q5S007, G2019S)
Assay: LRRK2 Km ATP LanthaScreen Assay
Assay type: biochemical
Settings: Examples N1-N25
Method: Unless otherwise noted, all LRRK2 IC50 data presented in tables refers to the LRRK2 Km ATP LanthaScreen™ Assay that is described in the Biological Assay section.
The data presented for the 5 mM and Km ATP LanthaScreen™ Assay represents mean IC50 values based on several test results and may have reasonable. deviations depending on the specific conditions and reagents used. Reagents for the LRRK2 5 mM and Km ATP LanthaScreen™ Assay were purchased from Life Technologies Corporation.
LRRK2 Km ATP LanthaScreen™ Assay
a) 400 nl of a 1:2.15 serial dilution of test compound(98 μM top assay concentration) is spotted via Labcyte Echo to certain wells in a 384 well black, untreated plate. Control wells contain 400 nl of either DMSO or 400 nl of a known inhibitor in DMSO.
b) 10 μl of a 2.5 nM LRRK2(G2019S mutation, GST-LRRK2(amino acids 970-2527)) enzyme solution in 1× assay buffer(50 mM Tris pH 8.5, 10 mM MgCl2, 0.01% Brij-35, 1 mM EGTA, 2 mM DTT, 0.05 mM NaVO4) is added to all wells.
c) A 30 minute room temperature incubation is followed by addition of 10 μl of 800 nM fluorescein labeled LRRKtide peptide substrate and 184 μM ATP solution in 1× assay buffer to all wells.
d) After a 60 minute room temperature incubation, 20 μl of TR-FRET Dilution Buffer(Invitrogen PV3756B) containing 4 nM Tb-labeled anti-phospho LRRKtide antibody and 20 mM EDTA is added to all wells.
e) Plates are incubated at room temperature for 1 hour and read on an Envision™ multi-mode plate reader with LanthaScreen™ settings. Results are analysed using Assay Data Analyzer.

LRRK2(G2019S mutation, GST-LRRK2(amino acids 970-2527)), sequence (Q5S007 970-2527 G2019S): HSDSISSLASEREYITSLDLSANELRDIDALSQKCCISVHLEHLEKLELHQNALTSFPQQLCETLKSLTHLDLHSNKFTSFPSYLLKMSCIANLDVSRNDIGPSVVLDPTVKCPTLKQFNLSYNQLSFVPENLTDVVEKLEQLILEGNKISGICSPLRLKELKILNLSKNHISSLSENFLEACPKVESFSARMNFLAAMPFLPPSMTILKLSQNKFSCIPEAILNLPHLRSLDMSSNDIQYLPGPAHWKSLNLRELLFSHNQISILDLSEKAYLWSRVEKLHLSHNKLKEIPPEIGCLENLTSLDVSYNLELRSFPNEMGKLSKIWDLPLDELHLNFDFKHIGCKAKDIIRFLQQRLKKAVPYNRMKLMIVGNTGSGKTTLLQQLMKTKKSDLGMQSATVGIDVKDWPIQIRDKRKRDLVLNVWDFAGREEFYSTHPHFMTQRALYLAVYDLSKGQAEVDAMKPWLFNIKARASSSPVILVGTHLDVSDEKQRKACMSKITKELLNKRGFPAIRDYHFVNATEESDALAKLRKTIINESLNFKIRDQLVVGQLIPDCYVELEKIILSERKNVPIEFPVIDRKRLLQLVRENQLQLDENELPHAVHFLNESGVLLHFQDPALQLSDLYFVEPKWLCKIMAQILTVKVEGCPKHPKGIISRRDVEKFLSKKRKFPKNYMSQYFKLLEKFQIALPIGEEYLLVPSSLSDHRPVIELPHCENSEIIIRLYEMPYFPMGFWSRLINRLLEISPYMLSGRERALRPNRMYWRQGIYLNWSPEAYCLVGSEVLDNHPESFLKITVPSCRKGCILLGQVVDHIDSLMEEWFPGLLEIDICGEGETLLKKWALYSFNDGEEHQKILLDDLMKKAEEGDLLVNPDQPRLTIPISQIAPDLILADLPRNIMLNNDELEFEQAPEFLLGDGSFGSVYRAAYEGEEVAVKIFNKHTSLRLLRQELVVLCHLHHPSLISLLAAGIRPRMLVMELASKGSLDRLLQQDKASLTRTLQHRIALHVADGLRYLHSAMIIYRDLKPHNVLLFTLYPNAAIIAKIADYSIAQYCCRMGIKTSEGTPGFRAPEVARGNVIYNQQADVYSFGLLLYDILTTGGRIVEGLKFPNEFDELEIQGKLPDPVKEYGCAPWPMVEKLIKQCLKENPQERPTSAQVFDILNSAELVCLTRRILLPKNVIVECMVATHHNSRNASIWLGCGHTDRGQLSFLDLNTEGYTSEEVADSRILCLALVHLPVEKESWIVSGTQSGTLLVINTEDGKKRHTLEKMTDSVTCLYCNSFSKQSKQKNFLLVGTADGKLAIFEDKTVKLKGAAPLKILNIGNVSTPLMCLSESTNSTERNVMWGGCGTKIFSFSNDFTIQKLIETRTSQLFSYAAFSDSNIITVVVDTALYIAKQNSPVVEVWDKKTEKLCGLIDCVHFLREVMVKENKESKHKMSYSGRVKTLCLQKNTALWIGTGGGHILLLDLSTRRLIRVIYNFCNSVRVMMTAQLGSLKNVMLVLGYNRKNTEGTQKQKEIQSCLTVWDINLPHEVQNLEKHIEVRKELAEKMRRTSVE

| SMILES | IC50 [nM] |
| --- | --- |
| CC(C)Oc1cc2c(-c3cc(N4CCn5ncnc5C4)ncn3)n[nH]c2cc1F [Example N1] | 7.1 |
| CC(C)Oc1cc2c(-c3cc(N4CCC(F)(F)C4)ncn3)n[nH]c2cc1F [Example N8] | 6.1 |
| CC(C)Oc1cc2c(-c3cc(N4[C@H](C)COC[C@H]4C)ncn3)n[nH]c2cc1F [Example N24] | 62.1 |
| CC(C)Oc1cc2c(-c3cc(N4CCn5nc(C(F)(F)F)nc5C4C)ncn3)n[nH]c2cc1F (stereo not shown) [Example N5] | 176 |

Same assay, conditions: Examples O1-O23

| SMILES | IC50 [nM] |
| --- | --- |
| COC[C@H](C)Oc1ccc2[nH]nc(-c3cc(N4CC[C@H](CO)C4)ncn3)c2c1 [Example O6] | 6 |
| COC[C@H](C)Oc1ccc2[nH]nc(-c3cc(N4CCOC(C)(C)C4)ncn3)c2c1 [Example O18] | 5.3 |
| COC[C@H](C)Oc1ccc2[nH]nc(-c3cc(N4C[C@H](O)[C@@H](N(C)C)C4)ncn3)c2c1 [Example O22] | 6.6 |

Same assay, conditions: Examples P1-P18

| SMILES | IC50 [nM] |
| --- | --- |
| c1nc(-c2n[nH]c3ccc(-c4ccc5nncn5c4)cc23)cc(N2CCOCC2)n1 [Example P12] | 56.1 |
| Cc1noc(C)c1-c1ccc2[nH]nc(-c3cc(N4CCOCC4)ncn3)c2c1 [Example P4] | 48.7 |
| c1nc(-c2n[nH]c3ccc(-c4ccc5ncnn5c4)cc23)cc(N2CCOCC2)n1 [Example P2] | 193 |

Same assay, conditions: Examples Q1-Q20

| SMILES | IC50 [nM] |
| --- | --- |
| C[C@@H]1CN(c2cc(-c3n[nH]c4ccc(-c5cnc(N6CCCC6)s5)cc34)ncn2)C[C@H](C)O1 [Example Q13] | 7.6 |
| COc1ccc(-c2ccc3[nH]nc(-c4cc(N5C[C@@H](C)O[C@@H](C)C5)ncn4)c3c2)cn1 [Example Q9] | 41.1 |
| Cc1nocc1-c1ccc2[nH]nc(-c3cc(N4C[C@@H](C)O[C@@H](C)C4)ncn3)c2c1 [Example Q5] | 40 |

Same assay, conditions: Km ATP (184 μM ATP solution), G2019S LRRK2, mean IC50

| SMILES | IC50 [nM] |
| --- | --- |
| CCN1CCN(c2cc(-c3n[nH]c4ccc(OCCOC)cc34)ncn2)CC1=O [Example G9] | 107 |
| COC[C@H](C)Oc1ccc2[nH]nc(-c3cc(N4CCC5(CCNC5=O)CC4)ncn3)c2c1 [Example H16] | 2.83 |
| CC(C)Oc1ccc2[nH]nc(-c3cc(N4CCN(C5CC5)CC4)ncn3)c2c1 [Example D10] | 8.28 |
| CCOc1ccc2[nH]nc(-c3cc(N4CCN(S(C)(=O)=O)CC4)ncn3)c2c1 [Example F1] | 15.4 |
| C[C@H]1CN(c2cc(-c3n[nH]c4cc(F)c(-c5cnn(C)c5)cc34)ncn2)CCO1 [Example L12] | 26.5 |
| CC(C)Oc1ccc2[nH]nc(-c3cc(N4CCN(c5nnc(C6CC6)o5)CC4)ncn3)c2c1 [Example J21] | 14 |
| COC[C@H](C)Oc1ccc2[nH]nc(-c3cc(N4CCO[C@H](C)C4)ncn3)c2c1 [Example H17] | 2.79 |
| Cn1cc(-c2cc3c(-c4cc(N5CCc6nccnc6C5)ncn4)n[nH]c3cc2F)cn1 [Example L26] | 11.1 |
| COC[C@H](C)Oc1ccc2[nH]nc(-c3cc(N4CC[C@H](OC)C4)ncn3)c2c1 [Example H13] | 5.27 |
| COCCOc1ccc2[nH]nc(-c3cc(N4CCN(C)CC4)ncn3)c2c1 [Example G4] | 67.2 |
| CC(C)Oc1ccc2[nH]nc(-c3cc(N4CCC(n5cccn5)CC4)ncn3)c2c1 [Example K14] | 15.3 |
| CC(C)Oc1ccc2[nH]nc(-c3cc(N4CC(n5cccn5)C4)ncn3)c2c1 [Example J12] | 22.6 |
| Cn1cc(-c2ccc3[nH]nc(-c4cc(N5CC[C@@H](CO)C5)ncn4)c3c2)cn1 [Example M7] | 2.9 |
| CC(C)NC(=O)CN1CCN(c2cc(-c3n[nH]c4ccc(OC(C)C)cc34)ncn2)CC1 [Example K1] | 5.1 |
| CC(C)Oc1ccc2[nH]nc(-c3cc(N4C[C@H](O)[C@@H](N)[C@@H]4C)ncn3)c2c1 [Example D55] | 14.4 |
| CC(C)Oc1ccc2[nH]nc(-c3cc(N4CCN(C(=O)c5ccco5)CC4)ncn3)c2c1 [Example K2] | 8.7 |
| COC[C@H](C)Oc1ccc2[nH]nc(-c3cc(N4CCC5(CC4)CNC(=O)C5)ncn3)c2c1 [Example H11] | 2.85 |
| CC(C)Oc1ccc2[nH]nc(-c3cc(N4C[C@@H](C)O[C@@H](C)C4)ncn3)c2c1 [Example J6] | 7.8 |
| COc1ccc2[nH]nc(-c3cc(N4CCO[C@H](C)C4)ncn3)c2c1 [Example E12] | 28.5 |
| CC(C)Oc1ccc2[nH]nc(-c3cc(N4CCC(F)(F)CC4)ncn3)c2c1 [Example D5] | 14.8 |
| COCCOc1ccc2[nH]nc(-c3cc(N4CCN(C)C(=O)C4)ncn3)c2c1 [Example G7] | 69 |
| CC(C)Oc1ccc2[nH]nc(-c3cc(N4C[C@@H]5C[C@H]4CO5)ncn3)c2c1 [Example D54] | 5.94 |
| Cn1cc(-c2ccc3[nH]nc(-c4cc(N5CCNC(=O)C5)ncn4)c3c2)cn1 [Example A14] | 2.84 |

| SMILES | IC50 [nM] |
| --- | --- |
| COCCOc1ccc2[nH]nc(-c3cc(N4C[C@@H](C)O[C@@H](C)C4)ncn3)c2c1 [Example G2] | 76.6 |
| CC(C)Oc1cc2c(-c3cc(N4C[C@H](N)C[C@@H]4C)ncn3)n[nH]c2cc1F [Example D60] | 7.6 |
| CC(C)Oc1ccc2[nH]nc(-c3cc(N4CCCC4)ncn3)c2c1 [Example J5] | 13.9 |
| CC(C)Oc1ccc2[nH]nc(-c3cc(N4CCC(F)(F)CC4)ncn3)c2c1 [Example J15] | 20.2 |
| CN(C)[C@H]1CCN(c2cc(-c3n[nH]c4ccc(-c5cnn(C)c5)cc34)ncn2)C1 [Example M19] | 4.6 |
| CC(C)Oc1ccc2[nH]nc(-c3cc(N4CCN(S(C)(=O)=O)CC4)ncn3)c2c1 [Example D7] | 7.99 |
| CC(C)Oc1ccc2[nH]nc(-c3cc(N4CCN(Cc5ccncc5)CC4)ncn3)c2c1 [Example K16] | 8.2 |
| CC(C)Oc1ccc2[nH]nc(-c3cc(N4CCN(C)CC4)ncn3)c2c1 [Example J17] | 5.4 |
| CCOc1ccc2[nH]nc(-c3cc(N4CCN(C5CC5)CC4)ncn3)c2c1 [Example F5] | 16.7 |
| CC(C)Oc1ccc2[nH]nc(-c3cc(N4C[C@H](O)[C@@H](O)[C@@H]4C)ncn3)c2c1 [Example D42] | 18.1 |
| Cn1cc(-c2cc3c(-c4cc(N5CCS(=O)(=O)CC5)ncn4)n[nH]c3cc2F)cn1 [Example L22] | 146 |
| CC(=O)N1CCN(c2cc(-c3n[nH]c4ccc(-c5cnn(C)c5)cc34)ncn2)CC1 [Example A13] | 3.15 |
| CC(C)Oc1ccc2[nH]nc(-c3cc(N4CCN(c5nncs5)CC4)ncn3)c2c1 [Example K21] | 17 |
| CN(C)[C@@H]1CN(c2cc(-c3n[nH]c4cc(F)c(-c5cnn(C)c5)cc34)ncn2)C[C@H]1O [Example L21] | 67.1 |
| COCCOC1CCN(c2cc(-c3n[nH]c4cc(F)c(OC(C)C)cc34)ncn2)CC1 [Example D67] | 2.1 |
| Cn1cc(-c2ccc3[nH]nc(-c4cc(N5CC[S+]([O-])CC5)ncn4)c3c2)cn1 [Example M11] | 26.8 |
| CCC(=O)N1CCN(c2cc(-c3n[nH]c4ccc(OC(C)C)cc34)ncn2)CC1 [Example D53] | 4.26 |
| Cn1cc(-c2ccc3[nH]nc(-c4cc(N5CCCC(F)(F)C5)ncn4)c3c2)cn1 [Example M2] | 2.2 |
| CC(C)Oc1ccc2[nH]nc(-c3cc(N4CCNCC4)ncn3)c2c1 [Example D18] | 12.4 |
| COCCOc1ccc2[nH]nc(-c3cc(N4CCN(C5CC5)CC4)ncn3)c2c1 [Example G5] | 97 |
| CC(C)Oc1ccc2[nH]nc(-c3cc(N4CC[C@@H](F)C4)ncn3)c2c1 [Example J25] | 8.7 |
| COCCNc1cc(-c2n[nH]c3ccc(-c4cnn(C)c4)cc23)ncn1 [Example A7] | 15 |
| Cn1cc(-c2ccc3[nH]nc(-c4cc(N5CCn6ncnc6C5)ncn4)c3c2)cn1 [Example M3] | 8.5 |

Same assay, conditions: Table U

| SMILES | IC50 [nM] |
| --- | --- |
| FC1(F)CCN(c2cc(-c3n[nH]c4ccc(C5=CCNCC5)cc34)ncn2)CC1 [Example U3] | 120 |
| FC1(F)CCN(c2cc(-c3n[nH]c4ccc(-c5cc[nH]n5)cc34)ncn2)CC1 [Example U6] | 2.16 |
| C1=C(c2ccc3[nH]nc(-c4cc(N5CCOCC5)ncn4)c3c2)CCNC1 [Example U12] | 71.6 |
| C[C@@H]1CN(c2cc(-c3n[nH]c4ccc(-c5ccn[nH]5)cc34)ncn2)C[C@H](C)O1 [Example U28] | 1.44 |
| c1cc(-c2ccc3[nH]nc(-c4cc(N5CCOCC5)ncn4)c3c2)[nH]n1 [Example U14] | 2.63 |
| CC(C)N1CCN(c2cc(-c3n[nH]c4ccc(-c5ccoc5)cc34)ncn2)CC1 [Example U22] | 9.03 |
| Clc1cc(-c2ccc3[nH]nc(-c4cc(N5CCOCC5)ncn4)c3c2)ccn1 [Example U18] | 266 |
| FC1(F)CCN(c2cc(-c3n[nH]c4ccc(-c5ccoc5)cc34)ncn2)CC1 [Example U1] | 86.2 |
| COc1ccncc1-c1ccc2[nH]nc(-c3cc(N4CCC(F)(F)CC4)ncn3)c2c1 [Example U4] | 6.66 |
| CC(C)N1CCN(c2cc(-c3n[nH]c4ccc(-c5cn[nH]c5)cc34)ncn2)CC1 [Example U24] | 0.96 |
| CC1(C)CC(=O)C=C(c2ccc3[nH]nc(-c4cc(N5CCC(F)(F)CC5)ncn4)c3c2)C1 [Example U5] | 7.08 |
